Source: patent publication US20190224222A1, “METHOD OF INHIBITING QUORUM SENSING USING D-GALACTOSE” (Seoul National University R&DB Foundation, priority 2014, published 2019)

Experiments:
[1] = tested on: F. nucleatum (Fn) biofilm; test: Fn biofilm formation induced by Fn AI-2, crystal violet staining; assay type: cell-based, F. nucleatum (ATCC 25586); conditions: Fn + Fn AI-2 10% (v/v), 48-72 h, Fn/AI-2 control 1.5, Fn 0.46
Description: To test biofilm formation by Fn, a Fn culture broth (2 ml; a negative control group, the number of bacteria: 2×10^7/ml), a mixture of Fn culture broth (2 ml) and F. nucleatum AI-2 (purified from F. nucleatum secretary material of F. nucleatum culture broth using a C18 Sep-Pak reverse-phase column (Waters Co., Milford, Mass.); hereinafter, referred to as ‘Fn AI-2’; 10% (v/v) with respect to the total volume of the mixture with Fn culture broth), or a mixture of Fn culture broth (2 ml) and Fn AI-2 (10% (v/v) with respect to the total volume of the mixture with Fn culture broth) and each of QSI candidates was added to a 24-well plate with a glass slip (round, 12 mm radius), and cultured under anaerobic conditions for 48-72 hours. As the QSI candidates, sugars (D-rib, D-gal, D-Glu, D-Man, or D-ara) were used in an amount of 2 mM, and the furanone compound [(5Z)-4-bromo-5-(bromomethylene)-2(5H)-furanone] was used in an amount of 2 μM.
(§1) Biofilms formed on the cover slips were stained with 10% crystal violet [Tris(4-(dimethylamino)phenyl)methylium chloride] for 10 minutes, washed three times with PBS, and destained with 1 ml of acetone-alcohol (20:80, vol/vol). The optical density at 590 nm of the destaining solution containing crystal violet was measured using a microplate reader (a Wallac Victor3 microtiter, PerkinElmer Life Sciences, Waltham, Mass.). The smaller optical density (OD590) measured at 590 nm represents more inhibition of biofilm formation, that is, higher quorum sensing inhibitory effect of the used QSI candidate.

[2] = tested on: T. forsythia (Tf) biofilm; test: Tf biofilm formation induced by Fn AI-2, crystal violet staining; assay type: cell-based, T. forsythia (ATCC 43037); conditions: Tf + Fn AI-2 10% (v/v), Fur 2 μM, 48-72 h; Tf/AI-2 control 0.48, Tf 0.32
Description: To test biofilm formation by Tf, a test was performed in the same manner as in Example 3. That is, a Tf culture broth (2 ml; a negative control group, the number of bacteria: 2×10^8/ml), a mixture of Tf culture broth (2 ml) and Fn AI-2 (10% (v/v) with respect to the total volume of the mixture with Tf culture broth), or a mixture of Tf culture broth (2 ml) and Fn AI-2 (10% (v/v) with respect to the total volume of the mixture with Tf culture broth) and D-gal (2 mM) was added to a 24-well plate with a glass slip (round, 12 mm radius), and cultured under anaerobic conditions for 48-72 hours. For comparison, 2 mM of D-rib or 2 μM of the furanone compound [(5Z)-4-bromo-5-(bromomethylene)-2(5H)-furanone] was used instead of D-gal to perform the same test.
as §1

S. oxalis (So) biofilm = test: S. oxalis biofilm formation, crystal violet staining; assay type: cell-based, Streptococcus oxalis (ATCC 9811); conditions: So on saliva-coated glass slip, Fur 2 uM; So control 0.59
Description: 2 mL (2×10^7/ml) of the culture broth of a representative cariogenic bacterium S. mutans (Sm) and 2 mL (2×10^7/ml) of the culture broth of one of normal oral flora, S. oxalis (SO) were added to a saliva-coated glass slip (round, 12 mm radius), respectively and cultured with 0 mM or 2 mM of D-galactose to form biofilms. […] Further, the biofilms were stained with fluorescent materials using the live/dead-BacLight viability kit (Invitrogen, Grand Island, N.Y., USA), followed by analysis. For comparison, 2 μM of the furanone compound was used instead of D-galactose to perform the same test.

[3] = tested on: P. gingivalis (Pg) biofilm; test: Pg biofilm formation induced by Fn secretory material, transwell, crystal violet; assay type: cell-based; conditions: Fn upper / Pg lower chamber, Fur 2 μM, 48-72 h, Fn/Pg control 0.57, Pg alone 0.30
Description: (§2) In order to examine efficacies of quorum sensing inhibitor (QSI) candidates on biofilm formation of periodontopathogenic bacteria which is induced by a secretory material of F. nucleatum (Fn), a test was performed using a transwell system. AI-2 naturally secreted by Fn is contained in the secretory material of Fn. Therefore, in the test using the transwell system, Fn AI-2 was not directly added to bacteria, but Fn was put in an upper chamber and Pg or Tf was put in a lower chamber. Biofilms cultured and formed in the presence or absence of QSI candidates were stained with crystal violet, followed by analysis. These conditions are to evaluate whether Pg or Tf biofilm formation is influenced by not a purified AI-2 but an AI-2-containing secretory material naturally secreted by Fn, and whether QSI candidates such as D-gal is able to inhibit the biofilm formation if the biofilm is then formed.
(§3) More specifically, the transwell system (24-well) has an upper chamber and a lower chamber which are separated from each other by a membrane of 0.4 μm. 500 μl of F. nucelatum (Fn) culture broth (the number of bacteria: 2×10^7 CFU/ml) was cultured in the upper chamber. A glass slip was placed in the lower chamber, and then the same number of P. gingivalis(Pg) or T. forsythia(Tf) was inoculated in 1 ml of medium and cultured for 48-72 hours. The same QSI candidates were added to the upper and lower chambers. As the QSI candidates, 2 mM of sugar (D-rib or D-gal) was used and 2 μM of the furanone compound [(5Z)-4-bromo-5-(bromomethylene)-2(5H)-furanone] was used. In order to examine whether biofilm formation of the bacteria in the lower chamber is influenced by Fn secretory material and QSI candidates, the biofilms formed on the glass slip were stained with crystal violet, and then quantified (see Examples 3 to 5).

[4] = tested on: T. forsythia (Tf) biofilm; test: Tf biofilm formation induced by Fn secretory material, transwell, crystal violet; assay type: cell-based; conditions: Fn upper / Tf lower chamber, Fur 2 μM, 48-72 h, Fn/Tf control 0.55, Tf alone 0.17
Description: as §2, §3

[5] = tested on: P. gingivalis (Pg) biofilm; test: Pg biofilm formation induced by Fn AI-2, crystal violet staining; assay type: cell-based, P. gingivalis (ATCC 33277); conditions: Pg + Fn AI-2 10% (v/v), Fur 2 μM, 48-72 h; Pg/AI-2 control 2.00, Pg 0.66
Description: To test biofilm formation by Pg, a test was performed in the same manner as in Example 3. That is, a Pg culture broth (2 ml; negative control group, the number of bacteria: 4×10^8/ml), a mixture of Pg culture broth (2 ml) and Fn AI-2 (10% (v/v) with respect to the total volume of the mixture with Pg culture broth), or a mixture of Pg culture broth (2 ml) and Fn AI-2 (10% (v/v) with respect to the total volume of the mixture with Fn culture broth) and D-gal (2 mM) was added to a 24-well plate with a glass slip (round, 12 mm radius), and cultured under anaerobic conditions for 48˜72 hours. For comparison, 2 μM of the furanone compound [(5Z)-4-bromo-5-(bromomethylene)-2(5H)-furanone] was used instead of D-gal (2 mM) to perform the same test.
as §1

S. mutans (Sm) biofilm = test: S. mutans biofilm formation, crystal violet staining; assay type: cell-based, Streptococcus mutans (ATCC 25175)
Description: 2 mL (2×10^7/ml) of the culture broth of a representative cariogenic bacterium S. mutans (Sm) and 2 mL (2×10^7/ml) of the culture broth of one of normal oral flora, S. oxalis (SO) were added to a saliva-coated glass slip (round, 12 mm radius), respectively and cultured with 0 mM or 2 mM of D-galactose to form biofilms. The formed biofilms were stained with crystal violet in the same manner as in Examples 3-6 to test biofilm formation according to the presence of D-galactose. Further, the biofilms were stained with fluorescent materials using the live/dead-BacLight viability kit (Invitrogen, Grand Island, N.Y., USA), followed by analysis. For comparison, 2 μM of the furanone compound was used instead of D-galactose to perform the same test.

[6] = sugar 2 mM, smaller OD = more inhibition of biofilm

With O=C[C@@H](O)[C@H](O)[C@H](O)CO [D-ara, D-arabinose] the OD590 nm [1, 6] was 1.37.

Work on O=C[C@H](O)[C@@H](O)[C@H](O)[C@H](O)CO [D-glu, D-glucose] yielded an OD590 nm [1, 6] of 1.15.

In the case of O=C[C@@H](O)[C@@H](O)[C@H](O)[C@H](O)CO [D-man, D-mannose], the OD590 nm [1, 6] is reported as 1.16.

Compound O=C1C=C(Br)/C(=C/Br)O1 [Fur, (5Z)-4-bromo-5-(bromomethylene)-2(5H)-furanone, reference compound] has an OD590 nm [2] of 0.35, an OD590 (S. oxalis (So) biofilm) of 0.64 and an OD590 nm [3] of 0.30. The OD590 [4] was 0.39, the OD590 nm [5] was 0.98 and the OD590 nm ([1]; Fur 2 μM) was 0.49. For the same compound, the OD590 nm (S. mutans (Sm) biofilm; Sm on saliva-coated glass slip, Fur 2 μM, Sm control 0.48) was 0.51 and the “inhibitory effect on Sm biofilm formation, in words” value (S. mutans (Sm) biofilm; crystal violet, D-gal 2 mM, furanone compound 2 μM) was “hardly exhibited the inhibitory effect”.
